From patent publication US12336991B2, “Factor XIIA inhibitors” (UNIVERSITY OF LEEDS, priority 2018, dated 2025)

Tests used:
Format in all cases: biochemical
FXIIa = molecular target: T1, FXIIa (Homo sapiens, UniProt P00748); assay: Determination of Factor XIIa inhibition, chromogenic substrate S-2302 assay; conditions: human FXIIa alpha
T1 sequence (P00748 373-615 limits assumed): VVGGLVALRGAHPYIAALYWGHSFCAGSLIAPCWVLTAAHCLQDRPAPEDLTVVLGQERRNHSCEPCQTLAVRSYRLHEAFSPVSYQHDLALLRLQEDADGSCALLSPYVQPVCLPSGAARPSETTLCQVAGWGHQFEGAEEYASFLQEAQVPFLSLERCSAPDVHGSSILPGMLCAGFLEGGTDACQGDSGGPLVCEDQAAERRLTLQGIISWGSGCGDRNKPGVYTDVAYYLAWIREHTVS
T1 sequence (P00748 20-372 partner limits assumed): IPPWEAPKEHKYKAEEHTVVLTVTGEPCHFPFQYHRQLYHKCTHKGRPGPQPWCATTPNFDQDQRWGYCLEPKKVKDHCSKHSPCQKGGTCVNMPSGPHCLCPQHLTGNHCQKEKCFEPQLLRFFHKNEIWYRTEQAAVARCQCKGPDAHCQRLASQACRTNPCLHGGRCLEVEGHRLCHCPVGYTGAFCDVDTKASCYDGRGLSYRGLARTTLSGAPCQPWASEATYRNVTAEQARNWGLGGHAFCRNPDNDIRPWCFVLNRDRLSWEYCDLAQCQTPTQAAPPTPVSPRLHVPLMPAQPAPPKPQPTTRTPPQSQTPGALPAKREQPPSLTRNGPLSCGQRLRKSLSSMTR
Method: (§1) The activities of the compounds of the invention have been determined in vitro using the following assays protocols for the screening of activity of FXIIa and other proteases. Each of these assays were performed in a purified system employing the use of chromogenic assays in microplate plate wells. Chromogenic peptide substrates mimicking natural protein substrates are attached via an amide bond to a chromogenic group. Paranitroaniline (pNA) is released from the peptide following catalyses by the proteolytic enzyme; the absorbance increases and can be monitored at 405 nm.
(§2) All compounds were dissolved in 100% (v/v) DMSO to a stock concentration of 10 mM, the highest concentration of compound used in each assay is 500 μM. The final concentrations of DMSO were 5% (v/v) in 50 mM Tris 137 mM NaC pH 7.4. Where no test compound was added a final concentration of 5% DMSO was employed.
Determination of Factor XIa Inhibition
Factor XIa activity was measured using a chromogenic substrate S-2302 (Chromogenix). Various concentrations of compound were incubated with 10 nM of FXIIa and incubated at 37° C. for 10 minutes in 50 mM Tris, 137 mM NaCl, pH 7.4, prior to the addition of a final concentration of 450 µM S-2302 chromogenic substrate. Kinetic readings at 405 nm were monitored every 12 secs for a total duration of 3 hours at 37° C. Gradients of initial rates were determined and employed to calculate IC50 values. Values of IC50 were converted to Ki values based on the formula: Ki=IC50/(1+[Substrate]/Km).
The activity of the compounds of the invention has been categorised based on the Ki values, the categories being “*”, “**” and “***”. […] The category “**” refers to compounds with a Ki value of 0.2 μM to 2 μM.

thrombin = molecular target: T2, thrombin (Homo sapiens, UniProt P00734); assay: Determination of selectivity: thrombin inhibition, chromogenic substrate GPR assay; conditions: fold selectivity for FXIIa over thrombin
T2 construct: FXa (5 nM) and thrombin (5 nM)
Method: as §1, §2
(§3) Determination of Selectivity
(§4) To determine selectivity of test compounds, these test compounds were assayed for inhibitory activity against other serine proteases including FXa and thrombin. Essentially compounds at increasing concentrations were incubated with each enzyme: FXa (5 nM) and thrombin (5 nM), for 10 mins at 37° C. followed the appropriate chromogenic substrate, S2765 ([…]), and GPR ([…]) respectively in 50 mM Tris, 137 mM NaCl, pH 7.4. Chromogenic substrates S2765 was from Chromogenix, and GPR from Bachem. Kinetic readings at 405 nm were monitored every 12 secs for a total duration of 3 hours at 37° C. Gradients of initial rates were determined and employed to calculate IC50 values. Values of IC50 were converted to Ki values based on the formula: Ki=IC50/(1+[Substrate]/Km)
(§5) Where [Substrate] denotes the concentration of substrate used in the assay and Km is the determined value of each enzyme with its own substrate.
(§6) The fold selectivity for FXIIa over thrombin for the compounds of the invention has been categorised based on the fold selectivity values, the categories being “+”, “++” and “+++”. The category “+” refers to fold selectivity values less than 10. The category “++” refers to a fold selectivity value of 10 to 100. The category “+++” refers to fold selectivity values greater than 100.

FXa = FXa (Homo sapiens, UniProt P00742); assay: Determination of selectivity: FXa inhibition, chromogenic substrate S2765 assay; conditions: fold selectivity for FXIIa over FXa
Method: as §1, §2, §3, §4, §5, §6
The fold selectivity for FXIIa over FXa for the compounds of the invention has been categorised based on the fold selectivity values, the categories being “o”, “oo” and “ooo”. The category “o” refers to fold selectivity values less than 10. The category “oo” refers to a fold selectivity value of 10 to 100. The category “ooo” refers to fold selectivity values greater than 100.

Chain of FXa (P00742 235-488 limits assumed): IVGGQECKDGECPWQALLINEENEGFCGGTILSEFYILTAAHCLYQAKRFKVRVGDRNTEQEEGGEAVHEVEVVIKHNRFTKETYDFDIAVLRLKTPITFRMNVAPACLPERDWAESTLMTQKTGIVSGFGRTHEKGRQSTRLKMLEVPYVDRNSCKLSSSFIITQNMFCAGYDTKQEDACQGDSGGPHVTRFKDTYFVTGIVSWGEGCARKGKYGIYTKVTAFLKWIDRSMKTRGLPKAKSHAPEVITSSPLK
Chain of FXa (P00742 41-179 partner limits assumed): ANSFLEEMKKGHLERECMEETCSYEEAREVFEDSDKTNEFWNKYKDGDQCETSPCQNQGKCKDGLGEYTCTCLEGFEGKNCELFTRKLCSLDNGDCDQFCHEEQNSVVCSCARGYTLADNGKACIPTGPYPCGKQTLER

| Structure (SMILES) | Ki (FXIIa) [µM] | Thrombin (human)/FXIIa alpha (human) (thrombin) | FXa (human)/FXIIa alpha (human) (FXa) |
| --- | --- | --- | --- |
| Cc1ccc(CC[C@@H](N)C(=O)N2CCC[C@H]2C(=O)NCc2ccc(CN)cc2)cc1 [Example M00787] | > 2 | + (fold selectivity values less than 10) | ∘∘ |
| COc1ccc(C[C@@H]2C[C@@H](C(=O)NCc3ccc4c(c3)nnn4C)N(C(=O)[C@H]3C[C@@H](c4cnn(C)c4)CN3)C2)cc1 [Example M05381] | 0.2 to 2 | +++ (fold selectivity values greater than 100) | ∘∘∘ |
| COc1ccc(C[C@@H]2C[C@@H](C(=O)NCc3ccc4c(c3)nnn4C)N(C(=O)[C@H](N)CCC(=O)N3CCC[C@@H]3C#N)C2)cc1 [Example M05458] | < 0.2 | +++ (fold selectivity values greater than 100) | ∘∘∘ |
| CN(C)[C@H](CCC(=O)N1CCCC1)C(=O)N1C[C@H](Cc2cccnc2)C[C@H]1C(=O)NCc1ccc2c(c1)c(Cl)nn2C [Example M05219] | < 0.2 | +++ (fold selectivity values greater than 100) | ∘∘∘ |
| Cn1nnc2cc(CNC(=O)[C@@H]3C[C@@H](Cc4ccc(F)c(F)c4)CN3C(=O)C3C[C@@H](c4ccccc4)CN3)ccc21 (stereo partly drawn) [Example M05325] | > 2 | ++ (fold selectivity value of 10 to 100) | ∘∘ |
| Cn1nnc2cc(CNC(=O)[C@@H]3C[C@@H](Cc4cccc5c4CCO5)CN3C(=O)[C@H](N)CCC(=O)N3CCCC3)ccc21 [Example M05380] | 0.2 to 2 | +++ (fold selectivity values greater than 100) | ∘∘∘ |
| NCc1ccc(CNC(=O)[C@@H]2CCCN2C(=O)[C@H](N)CCc2cccnc2)cc1 [Example M00808] | > 2 | + (fold selectivity values less than 10) | ∘∘ |
| Cn1nnc2cc(CNC(=O)[C@@H]3C[C@@H](Cc4ccc(OC(F)(F)F)cc4)CN3C(=O)[C@H]3C[C@@H](c4ccccc4)CN3)ccc21 [Example M05362] | 0.2 to 2 | ++ (fold selectivity value of 10 to 100) | ∘∘ |
| Cn1nnc2cc(CNC(=O)[C@@H]3C[C@@H](Cc4ccc(F)cc4)CN3C(=O)C3C[C@@H](c4ccccc4)CN3)ccc21 (stereo partly drawn) [Example M05324] | > 2 | ++ (fold selectivity value of 10 to 100) | ∘∘ |
| Cn1nnc2cc(CNC(=O)[C@@H]3C[C@@H](Cc4cccc(F)c4)CN3C(=O)[C@H]3C[C@@H](c4ccccc4)CN3)ccc21 [Example M05327] | > 2 | ++ (fold selectivity value of 10 to 100) | ∘ |
| Cn1nnc2cc(CNC(=O)[C@@H]3C[C@@H](Cc4ccc(F)cc4F)CN3C(=O)[C@H]3C[C@@H](c4ccccc4)CN3)ccc21 [Example M05361] | 0.2 to 2 | ++ (fold selectivity value of 10 to 100) | ∘∘ |
| Cn1nc(Cl)c2cc(CNC(=O)[C@@H]3C[C@@H](Cc4cccnc4)CN3C(=O)[C@H](N)CCC(=O)N3CCCC3)ccc21 [Example M05224] | < 0.2 | +++ (fold selectivity values greater than 100) | ∘∘∘ |
| COc1cncc(CC2C[C@@H](C(=O)NCc3ccc4c(c3)nnn4C)N(C(=O)[C@H](N)CCC(=O)N3CCCC3)C2)c1 (stereo partly drawn) [Example M05304] | 0.2 to 2 | +++ (fold selectivity values greater than 100) | ∘∘∘ |
| COc1ccc(C[C@@H]2C[C@@H](C(=O)NCc3ccc4c(c3)nnn4C)N(C(=O)C(N)CC(C)(C)c3ccccc3)C2)cc1 (stereo partly drawn) [Example M05416] | > 2 | – | – |
| COc1ccc(C[C@@H]2C[C@@H](C(=O)NCc3nc4cnccc4[nH]3)N(C(=O)[C@H](N)CCC(=O)N3CCCC3)C2)cc1 [Example M00973] | > 2 | +++ (fold selectivity values greater than 100) | ∘∘∘ |
| COc1ccc(C[C@@H]2C[C@@H](C(=O)NCc3ccc4c(C)nn(C)c4c3)N(C(=O)[C@H](N)CCC(=O)N3CCCC3)C2)cc1 [Example M05448] | 0.2 to 2 | +++ (fold selectivity values greater than 100) | ∘∘∘ |
| NCc1ccc(CNC(=O)[C@@H]2CCCN2C(=O)[C@H](N)CCC(=O)N2CCC3CC32)cc1 (stereo partly drawn) [Example M00929] | > 2 | + (fold selectivity values less than 10) | ∘∘ |
| Cn1nnc2cc(CNC(=O)[C@@H]3C[C@H](Nc4cnccn4)CN3C(=O)[C@H](N)CCC(=O)N3CCCC3)ccc21 [Example M05243] | > 2 | ++ (fold selectivity value of 10 to 100) | ∘∘ |
| Cn1nnc2cc(CNC(=O)[C@@H]3C[C@@H](Oc4ccccc4)CN3C(=O)[C@H](N)CCc3ccccc3)ccc21 [Example M00948] | > 2 | – | – |
| COc1ccc(C[C@@H]2C[C@@H](C(=O)NCc3ccc4c(c3)nnn4C)N(C(=O)[C@H]3CC(c4cnccc4C(F)(F)F)CN3)C2)cc1 (stereo partly drawn) [Example M05398] | > 2 | – | – |
| CC(=O)N[C@H]1C[C@@H](C(=O)NCc2ccc3c(c2)nnn3C)N(C(=O)[C@H](N)CCc2ccccc2)C1 [Example M05144, (2S,4S)-4-Acetylamino-1-((R)-2-amino-4-phenyl-butyryl)-pyrrolidine-2-carboxylic acid (1-methyl-1H-benzotriazol-5-ylmethyl)-amide] | > 2 | – | – |
| COc1ccc(C[C@@H]2C[C@@H](C(=O)NCc3ccc4c(c3)nnn4C)N(C(=O)[C@H]3CC(c4cnccc4C)CN3)C2)cc1 (stereo partly drawn) [Example M05408] | > 2 | – | – |
| COc1ccc(C[C@@H]2C[C@@H](C(=O)NCc3ccc4c(c3)nnn4C)N(C(=O)C(N)CC(C)(C)c3ccccc3)C2)cc1 (stereo partly drawn) [Example M05415] | > 2 | – | – |
